These results are taken from PubChem BioAssay AID342 (DTP/NCI, 2004).

Usually T/C stands for the result in the treated group divided by that in the control group, in per cent.

Values joined by “and” are separate entries in the source; they are usually repeats but may differ in a detail not shown here. Equal entries are not always repeated.

The test deals with Swiss mice, Sarcoma 180 sc, mean tumor weight T/C. As to the kind of experiment: NCI In Vivo Anticancer Drug Screen. Data for tumor model Sarcoma 180 (subcutaneous) in Swiss mice. The following applies: endpoint: mean tumor weight, higher = larger tumour. The gist of the method: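 Transplantable tumors were established in mice, compound was given, then survival or tumor size was recorded. The treated value was divided by the vehicle-control value.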

Setting [1] is: dose: 62.5 mg/kg/injection, schedule: Q#A X014 (ip), vehicle: carboxymethylcellulose (CMC).
Where [2] appears, read: dose: 125.0 mg/kg/injection, schedule: Q#A X014 (ip), vehicle: carboxymethylcellulose (CMC).
The mark [3] stands for this setting: dose: 250.0 mg/kg/injection, schedule: Q#A X014 (ip), vehicle: carboxymethylcellulose (CMC).

As for `CCC(c1ccc(O)cc1)C(CC)c1ccc(OC)cc1` (stereo unspecified), the T/C was 45 % of control and 53 % of control (dose: 2.0 mg/kg/injection, schedule: Q#A X014 (sc), vehicle: steriod suspending solution); 25 % of control (dose: 2.35 mg/kg/injection, schedule: Q#A X014 (ip), vehicle: methylcellulose (MC)); 32 % of control (dose: 3.5 mg/kg/injection, schedule: Q#A X014 (ip), vehicle: methylcellulose (MC)); 40 % of control (dose: 5.0 mg/kg/injection, schedule: Q#A X014 (ip), vehicle: methylcellulose (MC)); 39 % of control and 52 % of control (dose: 5.5 mg/kg/injection, schedule: Q#A X014 (sc), vehicle: steriod suspending solution); 41 % of control (dose: 7.5 mg/kg/injection, schedule: Q#A X014 (ip), vehicle: methylcellulose (MC)). The T/C reads like this: (dose: 8.5 mg/kg/injection, schedule: Q#A X014 (ip), vehicle: distilled water + alcohol) 15 % of control; (dose: 12.5 mg/kg/injection, schedule: Q#A X014 (ip), vehicle: distilled water + alcohol) 27 % of control; (dose: 16.5 mg/kg/injection, schedule: Q#A X014 (sc), vehicle: steriod suspending solution) 35 % of control and 48 % of control; (dose: 18.5 mg/kg/injection, schedule: Q#A X014 (ip), vehicle: distilled water + alcohol) 12 % of control; (dose: 27.5 mg/kg/injection, schedule: Q#A X014 (ip), vehicle: distilled water + alcohol) 19 % of control; (dose: 27.5 mg/kg/injection, schedule: Q#A X014 (ip), vehicle: olive oil, sesame oil, peanut oil) 49 % of control. Further, the T/C reads like this: (dose: 27.75 mg/kg/injection, schedule: Q#A X014 (ip), vehicle: methylcellulose (MC)) 24 % of control and 46 % of control; (dose: 41.5 mg/kg/injection, schedule: Q#A X014 (ip), vehicle: olive oil, sesame oil, peanut oil) 48 % of control; (dose: 41.65 mg/kg/injection, schedule: Q#A X014 (ip), vehicle: methylcellulose (MC)) 20 % of control and 24 % of control; (dose: 50.0 mg/kg/injection, schedule: Q#A X014 (sc), vehicle: steriod suspending solution) 33 % of control and 36 % of control; (dose: 62.5 mg/kg/injection, schedule: Q#A X014 (ip), vehicle: methylcellulose (MC)) 20 % of control and 32 % of control; (dose: 62.5 mg/kg/injection, schedule: Q#A X014 (ip), vehicle: olive oil, sesame oil, peanut oil) 69 % of control. In addition, the T/C was 28 % of control and 36 % of control (dose: 94.0 mg/kg/injection, schedule: Q#A X014 (ip), vehicle: methylcellulose (MC)); 42 % of control (dose: 94.0 mg/kg/injection, schedule: Q#A X014 (ip), vehicle: olive oil, sesame oil, peanut oil); 29 % of control and 44 % of control (dose: 150.0 mg/kg/injection, schedule: Q#A X014 (sc), vehicle: steriod suspending solution).
Take `CC1(C)O[C@@H]2C[C@H]3[C@@H]4CCC5=CC(=O)C=C[C@]5(C)[C@@]4(F)[C@@H](O)C[C@]3(C)[C@]2(C(=O)CO)O1`: the T/C reads like this: (dose: 1.1 mg/kg/injection, schedule: Q#A X014 (sc), vehicle: steriod suspending solution) 41 % of control and 57 % of control; (dose: 1.65 mg/kg/injection, schedule: Q#A X014 (sc), vehicle: steriod suspending solution) 33 % of control and 34 % of control; (dose: 2.5 mg/kg/injection, schedule: Q#A X014 (sc), vehicle: steriod suspending solution) 20 % of control and 26 % of control; (dose: 3.75 mg/kg/injection, schedule: Q#A X014 (sc), vehicle: steriod suspending solution) 22 % of control.
Turning to `CCOC(N)=O`, the T/C reads like this: under setting [1], 103 % of control; (dose: 85.38 mg/kg/injection, schedule: Q01DX007 (ip), vehicle: carboxymethylcellulose (CMC)) 56 % of control; (dose: 112.5 mg/kg/injection, schedule: Q01DX007 (ip), vehicle: carboxymethylcellulose (CMC)) 53 % of control; under setting [2], 85 % of control; (dose: 170.75 mg/kg/injection, schedule: Q01DX007 (ip), vehicle: carboxymethylcellulose (CMC)) 64 % of control; (dose: 225.0 mg/kg/injection, schedule: Q01DX007 (ip), vehicle: carboxymethylcellulose (CMC)) 42 % of control. Also, the T/C runs as follows: (dose: 225.0 mg/kg/injection, schedule: Q#A X014 (ip), vehicle: carboxymethylcellulose (CMC)) 113 % of control; under setting [3], 77 % of control; (dose: 273.2 mg/kg/injection, schedule: Q01DX007 (ip), vehicle: carboxymethylcellulose (CMC)) 55 % of control; (dose: 300.0 mg/kg/injection, schedule: Q#A X014 (ip), vehicle: carboxymethylcellulose (CMC)) 73 % of control; (dose: 316.0 mg/kg/injection, schedule: Q01DX007 (ip), vehicle: carboxymethylcellulose (CMC)) 67 % of control; (dose: 341.5 mg/kg/injection, schedule: Q01DX007 (ip), vehicle: carboxymethylcellulose (CMC)) 37 % of control and 46 % of control. Besides, the T/C (dose: 395.0 mg/kg/injection, schedule: Q01DX007 (ip), vehicle: carboxymethylcellulose (CMC)) is 54 % of control; the T/C (dose: 450.0 mg/kg/injection, schedule: Q01DX007 (ip), vehicle: carboxymethylcellulose (CMC)) was 53 % of control; the T/C (dose: 455.33 mg/kg/injection, schedule: Q01DX007 (ip), vehicle: carboxymethylcellulose (CMC)) is 62 % of control; the T/C (dose: 500.0 mg/kg/injection, schedule: Q#A X014 (ip), vehicle: carboxymethylcellulose (CMC)) is 24 % of control; the T/C (dose: 526.6 mg/kg/injection, schedule: Q01DX007 (ip), vehicle: carboxymethylcellulose (CMC)) was 40 % of control; the T/C (dose: 683.0 mg/kg/injection, schedule: Q01DX007 (ip), vehicle: carboxymethylcellulose (CMC)) was 21 % of control and 44 % of control. The T/C (dose: 900.0 mg/kg/injection, schedule: Q01DX007 (ip), vehicle: carboxymethylcellulose (CMC)) was 23 % of control.
As to `c1ccc2[nH]cnc2c1`, the T/C was 52 % of control (dose: 31.25 mg/kg/injection, schedule: Q#A X014 (ip), vehicle: carboxymethylcellulose (CMC)); 84 % of control (dose: 37.12 mg/kg/injection, schedule: Q01DX007 (ip), vehicle: carboxymethylcellulose (CMC)); 103 % of control (dose: 46.25 mg/kg/injection, schedule: Q01DX007 (ip), vehicle: carboxymethylcellulose (CMC)); 95 % of control under setting [1]; 76 % of control (dose: 74.25 mg/kg/injection, schedule: Q01DX007 (ip), vehicle: carboxymethylcellulose (CMC)); 94 % of control (dose: 92.5 mg/kg/injection, schedule: Q01DX007 (ip), vehicle: carboxymethylcellulose (CMC)). Also, the T/C was 84 % of control under setting [2]; 76 % of control (dose: 148.5 mg/kg/injection, schedule: Q01DX007 (ip), vehicle: carboxymethylcellulose (CMC)); 89 % of control (dose: 185.0 mg/kg/injection, schedule: Q01DX007 (ip), vehicle: carboxymethylcellulose (CMC)); 51 % of control under setting [3]; 62 % of control (dose: 297.0 mg/kg/injection, schedule: Q01DX007 (ip), vehicle: carboxymethylcellulose (CMC)).
On to `CCSCCC(N)C(=O)O` (stereo unspecified), for which the T/C by setting is: (dose: 9.37 mg/kg/injection, schedule: Q#A X014 (ip), vehicle: carboxymethylcellulose (CMC)) 80 % of control; (dose: 18.2 mg/kg/injection, schedule: Q01DX007 (ip), vehicle: carboxymethylcellulose (CMC)) 115 % of control; (dose: 18.75 mg/kg/injection, schedule: Q#A X014 (ip), vehicle: carboxymethylcellulose (CMC)) 116 % of control; (dose: 25.0 mg/kg/injection, schedule: Q01DX007 (ip), vehicle: carboxymethylcellulose (CMC)) 102 % of control; (dose: 36.3 mg/kg/injection, schedule: Q01DX007 (ip), vehicle: carboxymethylcellulose (CMC)) 98 % of control; (dose: 37.5 mg/kg/injection, schedule: Q#A X014 (ip), vehicle: carboxymethylcellulose (CMC)) 40 % of control. Further, the T/C is 80 % of control (dose: 50.0 mg/kg/injection, schedule: Q01DX007 (ip), vehicle: carboxymethylcellulose (CMC)); 77 % of control (dose: 72.5 mg/kg/injection, schedule: Q01DX007 (ip), vehicle: carboxymethylcellulose (CMC)); 36 % of control (dose: 75.0 mg/kg/injection, schedule: Q#A X014 (ip), vehicle: carboxymethylcellulose (CMC)); 106 % of control (dose: 90.0 mg/kg/injection, schedule: Q01DX007 (ip), vehicle: carboxymethylcellulose (CMC)); 111 % of control (dose: 100.0 mg/kg/injection, schedule: Q01DX007 (ip), vehicle: carboxymethylcellulose (CMC)); 98 % of control (dose: 108.0 mg/kg/injection, schedule: Q01DX007 (ip), vehicle: carboxymethylcellulose (CMC)). Moreover, the T/C reads like this: (dose: 145.0 mg/kg/injection, schedule: Q01DX007 (ip), vehicle: carboxymethylcellulose (CMC)) 108 % of control; (dose: 216.0 mg/kg/injection, schedule: Q01DX007 (ip), vehicle: carboxymethylcellulose (CMC)) 107 % of control; (dose: 432.0 mg/kg/injection, schedule: Q01DX007 (ip), vehicle: carboxymethylcellulose (CMC)) 47 % of control.
Regarding `C[C@@H]1C[C@](O)([C@@H](C)Cl)C(=O)O[C@@H]2CCN3CC=C(COC(=O)[C@]1(C)O)[C@H]23`, the T/C (dose: 25.0 mg/kg/injection, schedule: Q01DX007 (ip), vehicle: saline) is 74 % of control.
